From patent US20200069592A1, “HSP90 INHIBITOR ORAL FORMULATIONS AND RELATED METHODS” (Samus Therapeutics, Inc., priority 2017, published 2020) come the findings set out here.

A short description of series [1]: Particle size distribution (Cilas 1180) of as-received and jet milled API (Example 8). The format is physicochemical. The protocol:
Compound 2 API ‘as-received’ (Lots #2064-118-8, #2064-146-9, and # BPR-WS 1828-194D(2HCl)—B1-19) were analyzed for PSD on a Cilas 1180 particle size analyzer. Subsequently jet milled API batches B # L0441-20-JM51mmP1, B # L0441-20-JM51mmP2, B # L0441-20-JM51mmP3, and B # L0441-84-JM146mmP1 were also analyzed for PSD Approximately 50 mg Compound 2-2HCl was dispersed into 40 mL 0.2% (w/w) span 80 in n-hexanes (dispersant) and allowed to mix for 60 minutes. API was kept suspended in dispersant via stirring and sonication during test.
A jet milling study was performed on a batch of Compound 2 2HCl with jet mill Fluid Energy Asset #00170 outfitted with a 51 mm collection loop. Batches B # L0441-29-JM51mmP1, B # L0441-29-JM51mmP2, and B # L0441-29-JM51mmP3 were created from ˜10 g of Compound 2 lot # BPR-WS1828-194D(2HCl)-B1-19 subjected to 3 passes. Jet mill settings for grinder nozzle and pusher nozzle as follows: Pass 1 grinder nozzle=60 psi & pusher nozzle=80 psi, Pass 2 and 3 grinder nozzle=50 psi & pusher nozzle=70 psi.
After successfully jet milling on the R&D scale, B # L0441-84-JM146mmP1 was created from Compound 2-2HCl lot # BPR-17-87-B1-21d which was processed with a single pass to confirm GMP scale up conditions in the R&D laboratory by passing 85 g through the GMP jet mill Jet-O-Mizer Asset #01 16 Model 0101 outfitted with 146 mm collection loop using a standard nylon 4×48-inch collection sock inside a PTFE 4×48-inch sock to minimize fines loss. The pressure settings for the grinder and pusher nozzle were: Grinder nozzle 60 psi, Pusher nozzle 70 psi.

Series [2] in a line: Plasma pharmacokinetics after single PO or IV administration (Example 5), LC-MS/MS. As to conditions: female, Sprague-Dawley, rat, plasma, dosed as 2HCl; for AUC(0-t): AUC0-last (hr*ng/mL) Mean ± StdDev; for Cmax: Cmax (ng/mL) Mean ± StdDev; for Tmax: Tmax (hr) Mean ± StdDev.
Experimental: (§1) The animals used in this study were female Sprague Dawley Rats physiologically normal. At the time of receipt, mice were 200-225 g in weight. […] Ninety-four total animals were observed thereafter. The parenteral administration is performed by tail vein injection.
(§2) Compound 2 was provided in free base form and stored at −20° C., protected from light. Compound 2 was formulated in dosage form immediately prior to use. For oral administration of Compound 2 in ORA-Plus® drinking solution, Compound 2 was suspended in drinking solution ORA-Plus® (Perrigo; Minneapolis, Minn.). First, a mortar and pestle were used to smooth out the Compound 2 powder, then a small amount of ORA-Plus® was added, and next, the mixture was triturated to a thick, smooth paste. The remainder of the ORA-Plus® was added by geometric dilution. The Compound 2 free base and ORA-Plus® mixture was dispensed in a tight, light resistant amber bottle with appropriate labeling. This mixture was shaken well before using, protected from light and kept refrigerated if dosing was delayed. For oral administration of Compound 2 in citric acid buffer with Captisol®, Compound 2 free base powder was dissolved or suspended into 30% Captisol® (Cydex Pharmaceuticals; Lawrence, Kans.) in 60 mM citrate buffer (pH˜4.2) (citric acid and sodium citrate dehydrate (Sigma-Aldrich; St. Louis Mo.)) in sterile water) to each group's working concentration. […] A magnetic stir-bar was used to mix dosing solution, followed by sonication. For intravenous administration, Compound 2 free base powder was dissolved into 15% Captisol® in 5 mM citrate buffer (pH˜4.2) to each group's working concentration. A magnetic stirbar was used to mix dosing solution, followed by sonication. IV dosing solution of Compound 2 free base was filtered with a 0.2 m PVDF filter (Pall Life Sciences; Port Washington, N.Y.) prior to administration.
(§3) Dose levels of Compound 1 were based on the free base, not the salt.
(§4) Animals were randomized using random equilibration of body weights on Day 1 into one of 19 study groups, as shown in Table 23 (Groups 1-19), with 5 animals in each group, except for the 4 animals in Group 19. Body weights were collected Days 1, 2, 3, and/or 4 to accommodate data collection of staggered groups. Gross observations of body weight were noted during the course of the study.
For series [3] the following is noted: female, Sprague Dawley, rat, in vivo, po.
Experimental: as §1, §2, §3, §4
Where [4] appears, read: after jet milling, 51 mm collection loop.
Where [5] appears, read: iv, 12 mg/kg, Group 18: 12 mg/kg IV, 0.9% Saline.
Setting [6] is: iv, 24 mg/kg, Group 19: 24 mg/kg IV, 0.9% Saline.
The mark [7] stands for this setting: po, 24 mg/kg, Group 11: 24 mg/kg PO, ORA-Plus, single dose.
The mark [8] stands for this setting: po, 36 mg/kg, Group 12: 36 mg/kg PO, ORA-Plus.
Where [9] appears, read: po, 36 mg/kg, Group 15: 36 mg/kg PO, 0.5% Methylcellulose in water.
Setting [10] is: po, 48 mg/kg, Group 13: 48 mg/kg PO, ORA-Plus.
Setting [11] is: po, 48 mg/kg, Group 16: 48 mg/kg PO, 0.5% Methylcellulose in water.
[12] abbreviates: po, 60 mg/kg, Group 14: 60 mg/kg PO, ORA-Plus.
[13] abbreviates: po, 60 mg/kg, Group 17: 60 mg/kg PO, 0.5% Methylcellulose in water.

Read-outs that look alike come from different tables or passages of the source.

As to `CC(C)(C)CNCCn1c(Sc2cc3c(cc2I)OCO3)nc2c(N)ncnc21` [B #132-L0441-20-JM51mmP1], in series [1] (setting [4]), the “Particle size d10” value is on record as 3.1 μm, the “Particle size d50” value is 7.9 μm, the “Particle size d90” value stood at 17.3 μm and the Particle size span is 14.2 μm. Moreover, the “Particle size d90” value in series [1] (as quoted for the batches used in Example 9, listed as B # L0441-20-JM51mmP1) is 17 um.
Consider `CC(C)(C)CNCCn1c(Sc2cc3c(cc2I)OCO3)nc2c(N)ncnc21` [B #132-L0441-20-JM51mmP2], for which, in series [1] (setting [4]), the “Particle size d10” value is 2.3 μm, the “Particle size d50” value is listed as 5.6 μm, the “Particle size d90” value worked out at 11.7 μm and the Particle size span is 9.4 μm. Also, the “Particle size d90” value in series [1] (as quoted for the batches used in Example 9, listed as B # L0441-20-JM51mmP2) is on record as 11 um.
Turning to `CC(C)(C)CNCCn1c(Sc2cc3c(cc2I)OCO3)nc2c(N)ncnc21` [B #132-L0441-20-JM51mmP3], in series [1] (setting [4]), the “Particle size d10” value was determined as 2.0 μm, the “Particle size d50” value worked out at 4.8 μm, the “Particle size d90” value stood at 10.1 μm and the Particle size span is on record as 8.1 μm.
As a reminder, the AUC(0-t) is exposure summed from dosing to a finite time, without extrapolation to infinity. A word on the Cmax: it is the peak of the concentration-time curve. What is called Tmax is the time at which the peak concentration occurs. `CC(C)NCCCn1c(Sc2cc3c(cc2I)OCO3)nc2c(N)ncnc21` [Compound 1]: the AUC(0-t) in series [2] (setting [5]) amounted to 2470 ± 573 ng·h/mL; in series [2] (setting [6]), 5500 ± 2800 ng·h/mL; in series [2] (setting [7]) it was 2700 ± 462 ng·h/mL; in series [2] (setting [8]), 3220 ± 870 ng·h/mL; in series [2] (setting [9]), 2850 ± 919 ng·h/mL; in series [2] (setting [10]), 6500 ± 2030 ng·h/mL. The AUC(0-t) in series [2] (setting [11]) was found to be 6500 ± 1690 ng·h/mL; in series [2] (setting [12]), 4870 ± 1420 ng·h/mL; in series [2] (setting [13]), 7320 ± 2440 ng·h/mL. Besides, the Cmax in series [2] (setting [5]) amounted to 1280 ± 325 ng/mL; in series [2] (setting [6]) it was 2080 ± 79.3 ng/mL; in series [2] (setting [7]), 807 ± 214 ng/mL; in series [2] (setting [8]), 853 ± 193 ng/mL; in series [2] (setting [9]), 812 ± 270 ng/mL; in series [2] (setting [10]), 1420 ± 470 ng/mL. Besides, the Cmax in series [2] (setting [11]) is 1650 ± 271 ng/mL; in series [2] (setting [12]) it was 1120 ± 175 ng/mL; in series [2] (setting [13]), 1760 ± 458 ng/mL. The Tmax in series [2] (setting [5]) came out at 0.25 h; in series [2] (setting [6]), 0.31 ± 0.13 h; in series [2] (setting [7]), 2 h; in series [2] (setting [8]), 2 h; in series [2] (setting [9]), 2.2 ± 1.1 h; in series [2] (setting [10]), 2.4 ± 0.89 h. The Tmax amounted to 1.4 ± 0.55 h in series [2] (setting [11]), 3 ± 2 h in series [2] (setting [12]) and 1.5 ± 0.71 h in series [2] (setting [13]). Moreover, the “% AUC0-last ORA vs methylcellulose Mean ± StdDev” value came to 119.11 ± 45.91% in series [3] (36 mg/kg), 111.81 ± 69.18% in series [3] (48 mg/kg) and 70.33 ± 23.05% in series [3] (60 mg/kg). For the same compound, the “% Cmax ORA vs methylcellulose Mean ± StdDev” value in series [3] (36 mg/kg) is reported as 118.75 ± 64.56%; in series [3] (48 mg/kg), 89.30 ± 37.98%; in series [3] (60 mg/kg) it was 66.16 ± 17.44%.
